ChEMBL document CHEMBL3860026, “Depsidones from Lichens as Natural Product Inhibitors of M-Phase Phosphoprotein 1, a Human Kinesin Required for Cytokinesis” (J Nat Prod, 2016)
In brackets after ≈: the same amount, converted by molar mass. Activity calls are given as the source filed them. No cut-off for these calls is given here.

Experiments:
[1] = target: T1, Kinesin-like protein KIF20B (Homo sapiens, UniProt Q96Q89); assay: Inhibition of microtubule-stimulated ATPase activity of N-terminal His6-tagged/SUMO-fused human MPP1 motor domain (57 to 491 residues) expressed in Escherichia coli BL21 CodonPlus by pyruvate kinase/lactate dehydrogenase-linked assay
[2] = target: T1, Kinesin-like protein KIF20B; details: 1 to 20 uM
[3] = target: T1, Kinesin-like protein KIF20B; details: 1 to 20 uM; remark: listed apart in the source
[4] = target: Centromere-associated protein E (Homo sapiens, UniProt Q02224); assay: Inhibition of basal ATPase activity of human CENP-E by pyruvate kinase/lactate dehydrogenase-linked assay
[5] = Cytotoxicity against human UM-UC-3 cells assessed as growth inhibition after 72 hrs by Alamar Blue assay; assay type: functional, cell-based; details: UMUC3, 72 h
[6] = target: T1, Kinesin-like protein KIF20B; assay: Inhibition of basal ATPase activity of N-terminal His6-tagged/SUMO-fused human MPP1 motor domain (57 to 491 residues) expressed in Escherichia coli BL21 CodonPlus by pyruvate kinase/lactate dehydrogenase-linked assay
[7] = target: T2, Chromosome-associated kinesin KIF4A (Homo sapiens) (UniProt O95239); assay: Inhibition of microtubule-stimulated ATPase activity of human Kif4A at 200 uM by pyruvate kinase/lactate dehydrogenase-linked assay
T2 sequence (whole entry): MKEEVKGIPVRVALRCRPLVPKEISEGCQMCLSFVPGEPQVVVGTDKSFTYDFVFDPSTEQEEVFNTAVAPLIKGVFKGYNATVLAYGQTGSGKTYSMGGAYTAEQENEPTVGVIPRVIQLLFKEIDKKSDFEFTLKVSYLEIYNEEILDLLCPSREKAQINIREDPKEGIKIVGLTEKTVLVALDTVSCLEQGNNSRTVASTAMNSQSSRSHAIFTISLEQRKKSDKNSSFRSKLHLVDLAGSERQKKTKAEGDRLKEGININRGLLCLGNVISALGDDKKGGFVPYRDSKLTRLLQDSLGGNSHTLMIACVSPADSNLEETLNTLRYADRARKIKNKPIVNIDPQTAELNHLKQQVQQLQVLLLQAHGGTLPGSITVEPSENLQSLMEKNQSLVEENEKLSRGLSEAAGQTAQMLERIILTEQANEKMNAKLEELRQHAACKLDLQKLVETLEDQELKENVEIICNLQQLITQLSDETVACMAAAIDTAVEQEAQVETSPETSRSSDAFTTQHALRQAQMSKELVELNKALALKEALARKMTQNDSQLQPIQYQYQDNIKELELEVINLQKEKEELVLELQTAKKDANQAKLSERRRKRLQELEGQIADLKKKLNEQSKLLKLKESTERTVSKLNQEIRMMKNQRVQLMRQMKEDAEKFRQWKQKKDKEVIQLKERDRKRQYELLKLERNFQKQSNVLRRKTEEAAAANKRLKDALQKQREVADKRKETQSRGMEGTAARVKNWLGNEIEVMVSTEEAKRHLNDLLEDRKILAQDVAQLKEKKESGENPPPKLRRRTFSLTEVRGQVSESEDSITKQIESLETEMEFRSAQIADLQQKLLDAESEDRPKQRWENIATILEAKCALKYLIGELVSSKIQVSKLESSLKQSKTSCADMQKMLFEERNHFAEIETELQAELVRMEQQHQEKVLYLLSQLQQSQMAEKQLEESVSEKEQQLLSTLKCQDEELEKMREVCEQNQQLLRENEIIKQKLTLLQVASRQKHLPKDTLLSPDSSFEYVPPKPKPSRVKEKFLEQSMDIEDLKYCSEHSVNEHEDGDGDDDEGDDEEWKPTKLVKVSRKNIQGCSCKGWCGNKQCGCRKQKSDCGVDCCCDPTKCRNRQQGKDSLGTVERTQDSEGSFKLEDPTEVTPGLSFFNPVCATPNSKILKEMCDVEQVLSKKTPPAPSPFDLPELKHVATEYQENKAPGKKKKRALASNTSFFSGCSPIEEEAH

[8] = Cytotoxicity against human K562 cells assessed as growth inhibition after 72 hrs by Alamar Blue assay; assay type: functional, cell-based; details: K562, 72 h
[9] = Solubility of the compound in phosphate buffered saline at pH 2 after 2 hrs by turbidimetric method; assay type: physicochemical
[10] = Half life in mouse liver microsomes at 3 uM by LC-MS/MS method; assay type: ADME
[11] = Solubility of the compound in phosphate buffered saline at pH 7.4 after 2 hrs by turbidimetric method; assay type: physicochemical
[12] = Solubility of the compound in phosphate buffered saline at pH 6 after 2 hrs by turbidimetric method; assay type: physicochemical
[13] = target: T3, Kinesin-like protein KIF23 (Homo sapiens) (UniProt Q02241); assay: Inhibition of microtubule-stimulated ATPase activity of human MKLP-1 at 200 uM by pyruvate kinase/lactate dehydrogenase-linked assay
T3 sequence (whole entry): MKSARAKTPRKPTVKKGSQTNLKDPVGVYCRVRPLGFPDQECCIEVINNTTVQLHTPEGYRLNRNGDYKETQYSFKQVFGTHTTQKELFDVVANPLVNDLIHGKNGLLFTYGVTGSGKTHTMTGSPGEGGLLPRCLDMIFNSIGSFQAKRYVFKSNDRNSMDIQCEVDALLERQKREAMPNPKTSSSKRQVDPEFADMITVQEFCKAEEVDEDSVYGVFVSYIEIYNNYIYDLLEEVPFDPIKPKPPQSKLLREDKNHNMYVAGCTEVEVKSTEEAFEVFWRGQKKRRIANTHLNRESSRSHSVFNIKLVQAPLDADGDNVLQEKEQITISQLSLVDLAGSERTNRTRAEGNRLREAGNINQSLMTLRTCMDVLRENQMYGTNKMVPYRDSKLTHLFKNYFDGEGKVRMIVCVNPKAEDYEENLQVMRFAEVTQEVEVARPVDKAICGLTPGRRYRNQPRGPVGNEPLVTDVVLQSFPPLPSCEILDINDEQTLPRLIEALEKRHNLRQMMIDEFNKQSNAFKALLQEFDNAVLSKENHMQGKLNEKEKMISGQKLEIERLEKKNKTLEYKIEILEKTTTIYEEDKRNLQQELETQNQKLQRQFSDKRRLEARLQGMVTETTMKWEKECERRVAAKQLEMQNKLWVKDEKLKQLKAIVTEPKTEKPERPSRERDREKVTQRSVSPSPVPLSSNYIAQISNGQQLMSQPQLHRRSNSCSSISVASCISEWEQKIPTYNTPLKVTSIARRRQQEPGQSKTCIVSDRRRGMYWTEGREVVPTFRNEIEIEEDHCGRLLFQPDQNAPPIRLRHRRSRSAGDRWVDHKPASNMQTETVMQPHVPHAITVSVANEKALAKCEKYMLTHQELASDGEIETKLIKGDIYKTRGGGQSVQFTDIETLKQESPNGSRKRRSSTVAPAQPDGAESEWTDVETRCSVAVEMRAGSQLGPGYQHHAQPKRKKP

T1 sequence (Q96Q89 whole entry, the tested form may be a part): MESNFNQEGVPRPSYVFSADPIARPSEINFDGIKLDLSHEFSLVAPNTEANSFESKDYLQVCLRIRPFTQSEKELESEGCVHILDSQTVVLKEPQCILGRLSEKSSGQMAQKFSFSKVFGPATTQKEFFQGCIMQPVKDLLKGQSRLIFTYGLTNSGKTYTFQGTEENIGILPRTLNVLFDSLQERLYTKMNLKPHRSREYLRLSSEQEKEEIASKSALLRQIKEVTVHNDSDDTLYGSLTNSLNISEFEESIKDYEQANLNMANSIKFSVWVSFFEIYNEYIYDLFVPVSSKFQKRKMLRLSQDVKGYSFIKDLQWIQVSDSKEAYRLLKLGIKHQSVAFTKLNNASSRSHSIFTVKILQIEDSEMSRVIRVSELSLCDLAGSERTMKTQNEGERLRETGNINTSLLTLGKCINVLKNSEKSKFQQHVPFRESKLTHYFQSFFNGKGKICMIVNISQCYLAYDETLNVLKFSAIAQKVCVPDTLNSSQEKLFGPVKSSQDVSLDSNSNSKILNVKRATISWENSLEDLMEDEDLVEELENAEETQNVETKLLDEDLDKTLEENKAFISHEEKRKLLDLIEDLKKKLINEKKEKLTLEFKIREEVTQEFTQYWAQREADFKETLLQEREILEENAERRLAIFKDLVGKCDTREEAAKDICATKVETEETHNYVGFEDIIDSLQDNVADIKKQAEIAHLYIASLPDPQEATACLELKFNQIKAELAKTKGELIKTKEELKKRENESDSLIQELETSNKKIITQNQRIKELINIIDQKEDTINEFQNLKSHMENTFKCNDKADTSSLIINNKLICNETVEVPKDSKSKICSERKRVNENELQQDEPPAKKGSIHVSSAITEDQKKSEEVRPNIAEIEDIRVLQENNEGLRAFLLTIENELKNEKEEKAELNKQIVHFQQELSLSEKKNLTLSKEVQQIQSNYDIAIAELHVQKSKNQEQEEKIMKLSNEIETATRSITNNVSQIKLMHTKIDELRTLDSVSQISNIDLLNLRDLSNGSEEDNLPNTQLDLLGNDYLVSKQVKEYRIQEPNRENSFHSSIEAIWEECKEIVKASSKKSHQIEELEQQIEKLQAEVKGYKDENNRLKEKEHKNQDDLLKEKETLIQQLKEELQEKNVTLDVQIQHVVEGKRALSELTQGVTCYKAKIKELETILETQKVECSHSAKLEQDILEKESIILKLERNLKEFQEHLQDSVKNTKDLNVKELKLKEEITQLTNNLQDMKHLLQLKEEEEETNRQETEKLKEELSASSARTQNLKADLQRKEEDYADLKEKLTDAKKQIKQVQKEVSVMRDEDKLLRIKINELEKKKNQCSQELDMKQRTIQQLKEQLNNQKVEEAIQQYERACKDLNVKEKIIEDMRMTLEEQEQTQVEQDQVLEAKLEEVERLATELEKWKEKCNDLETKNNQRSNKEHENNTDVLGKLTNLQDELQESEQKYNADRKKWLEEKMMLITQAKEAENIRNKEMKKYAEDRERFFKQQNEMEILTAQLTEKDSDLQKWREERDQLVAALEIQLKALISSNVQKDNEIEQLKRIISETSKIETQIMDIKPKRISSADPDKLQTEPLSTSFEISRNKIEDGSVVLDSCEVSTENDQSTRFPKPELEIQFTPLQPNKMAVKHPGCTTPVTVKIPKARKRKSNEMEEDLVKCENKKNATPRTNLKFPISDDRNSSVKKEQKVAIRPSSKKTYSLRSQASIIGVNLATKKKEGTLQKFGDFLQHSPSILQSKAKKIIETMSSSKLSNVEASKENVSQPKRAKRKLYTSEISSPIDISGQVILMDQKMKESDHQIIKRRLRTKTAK
Chain of Centromere-associated protein E (Q02224 whole entry): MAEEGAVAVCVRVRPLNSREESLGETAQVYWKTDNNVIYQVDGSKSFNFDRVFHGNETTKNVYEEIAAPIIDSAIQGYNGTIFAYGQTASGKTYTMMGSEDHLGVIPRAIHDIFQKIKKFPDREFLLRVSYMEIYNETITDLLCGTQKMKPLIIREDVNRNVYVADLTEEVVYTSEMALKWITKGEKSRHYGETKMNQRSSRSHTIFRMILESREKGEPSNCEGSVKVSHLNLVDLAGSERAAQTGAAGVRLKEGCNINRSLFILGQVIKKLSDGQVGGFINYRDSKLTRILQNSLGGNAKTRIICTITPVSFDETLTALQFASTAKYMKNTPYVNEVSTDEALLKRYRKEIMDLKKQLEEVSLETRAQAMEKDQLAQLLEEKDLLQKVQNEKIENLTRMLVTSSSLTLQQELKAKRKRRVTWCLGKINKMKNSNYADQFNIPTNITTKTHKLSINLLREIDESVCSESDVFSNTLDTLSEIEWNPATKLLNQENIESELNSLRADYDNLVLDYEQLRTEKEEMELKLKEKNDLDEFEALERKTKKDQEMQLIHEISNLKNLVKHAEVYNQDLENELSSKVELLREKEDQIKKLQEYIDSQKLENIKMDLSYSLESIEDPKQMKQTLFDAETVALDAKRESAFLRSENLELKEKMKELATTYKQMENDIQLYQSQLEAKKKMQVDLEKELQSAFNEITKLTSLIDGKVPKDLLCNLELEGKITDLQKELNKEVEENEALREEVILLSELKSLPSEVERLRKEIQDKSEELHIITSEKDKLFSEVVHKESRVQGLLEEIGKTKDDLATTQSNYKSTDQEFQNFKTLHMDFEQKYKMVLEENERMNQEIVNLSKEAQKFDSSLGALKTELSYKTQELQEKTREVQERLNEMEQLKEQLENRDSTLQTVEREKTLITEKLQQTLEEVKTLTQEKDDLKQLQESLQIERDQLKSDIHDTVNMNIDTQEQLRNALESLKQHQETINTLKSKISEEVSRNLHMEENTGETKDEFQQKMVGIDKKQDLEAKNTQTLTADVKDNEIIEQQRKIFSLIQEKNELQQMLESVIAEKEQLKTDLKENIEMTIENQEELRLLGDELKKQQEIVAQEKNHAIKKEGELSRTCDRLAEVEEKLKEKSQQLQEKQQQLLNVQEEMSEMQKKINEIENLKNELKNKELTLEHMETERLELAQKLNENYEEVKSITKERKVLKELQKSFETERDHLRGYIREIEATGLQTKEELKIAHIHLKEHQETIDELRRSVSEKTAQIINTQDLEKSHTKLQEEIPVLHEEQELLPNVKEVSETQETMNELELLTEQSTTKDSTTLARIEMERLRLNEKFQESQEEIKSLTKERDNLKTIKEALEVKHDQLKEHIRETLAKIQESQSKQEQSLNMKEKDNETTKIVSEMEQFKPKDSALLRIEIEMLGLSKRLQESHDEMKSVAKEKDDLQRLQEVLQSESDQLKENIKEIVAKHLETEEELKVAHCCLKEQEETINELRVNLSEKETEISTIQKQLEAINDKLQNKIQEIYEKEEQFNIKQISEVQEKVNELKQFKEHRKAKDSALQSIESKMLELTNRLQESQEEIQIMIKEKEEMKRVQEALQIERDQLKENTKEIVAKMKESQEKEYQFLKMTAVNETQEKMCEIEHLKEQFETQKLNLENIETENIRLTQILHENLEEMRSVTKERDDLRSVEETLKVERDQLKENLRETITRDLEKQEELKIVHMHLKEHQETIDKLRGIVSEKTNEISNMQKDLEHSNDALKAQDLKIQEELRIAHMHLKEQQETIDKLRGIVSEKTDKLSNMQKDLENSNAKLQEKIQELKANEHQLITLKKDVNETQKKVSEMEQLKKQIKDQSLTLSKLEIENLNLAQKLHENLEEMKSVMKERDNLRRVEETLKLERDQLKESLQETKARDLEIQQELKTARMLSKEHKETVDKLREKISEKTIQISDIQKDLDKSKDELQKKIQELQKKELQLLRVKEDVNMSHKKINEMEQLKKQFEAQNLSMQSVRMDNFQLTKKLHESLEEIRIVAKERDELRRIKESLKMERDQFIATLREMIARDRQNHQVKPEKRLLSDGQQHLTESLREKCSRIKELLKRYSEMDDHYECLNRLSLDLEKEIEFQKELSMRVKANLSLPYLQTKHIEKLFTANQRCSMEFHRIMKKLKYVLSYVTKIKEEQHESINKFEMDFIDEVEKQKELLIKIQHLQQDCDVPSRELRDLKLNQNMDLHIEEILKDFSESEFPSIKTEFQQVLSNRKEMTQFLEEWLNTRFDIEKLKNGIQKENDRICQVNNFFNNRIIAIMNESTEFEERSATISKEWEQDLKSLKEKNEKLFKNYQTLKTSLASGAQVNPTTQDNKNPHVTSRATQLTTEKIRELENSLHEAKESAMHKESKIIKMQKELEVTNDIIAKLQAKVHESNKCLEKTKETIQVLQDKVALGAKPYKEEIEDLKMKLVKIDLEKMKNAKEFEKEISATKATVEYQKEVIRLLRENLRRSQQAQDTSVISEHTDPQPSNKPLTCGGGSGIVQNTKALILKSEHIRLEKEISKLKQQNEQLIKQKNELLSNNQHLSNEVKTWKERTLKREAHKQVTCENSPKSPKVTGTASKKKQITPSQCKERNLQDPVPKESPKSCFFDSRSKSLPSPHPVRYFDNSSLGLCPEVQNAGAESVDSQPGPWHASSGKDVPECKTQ

In the case of `CCCCCC(=O)Cc1cc(O)cc2c1C(=O)Oc1cc(O)c(C(=O)O)c(CCCCC)c1O2` [PHYSODIC ACID], the IC50 [1] is reported as 5.8 µM, the Imax [1] is reported as 90% and the inhibition [2] is reported as “Active”. The inhibition [3] was “Active”, the IC50 [4] was 29.6 µM and the EC50 [5] was 31.8 µM. The IC50 [6] was 9.9 µM, the Imax [6] was 85% and the inhibition [7] was 40%. It also gave an EC50 [8] of 32.6 µM, a solubility kinetic at 2 h [9] of 3.75 µM (≈ 1.76 µg/mL) and a half-life at 3 µM [10] of 22.5 min. It also gave a solubility kinetic at 2 h [11] of over 100 µM, a solubility kinetic at 2 h [12] of 65 µM (≈ 30.6 µg/mL) and an inhibition [13] of 40%.
